# According to US20090170871A1, “IL-8 Receptor Antagonists” (SMITHKLINE BEECHAM CORPORATION, priority 2006, published 2009):
# System: whole blood neutrophil CD11b expression (CXCL2-stimulated)
# Assay: Neutrophil CD11b Stimulation Following Oral Dosing to Rats
# Type: in vivo, Lewis rats
# Protocol: Rat whole blood, 3 ml, was drawn by cardiac puncture in a syringe containing 100 μl of 0.25 M EDTA (GIBCO, Grand Island, N.Y.). Rat CXCL2 (PeproTech, Rocky Hill, N.J.) stock was made by reconstitution in Kreb's/0.1% BSA (KBSA) at 10 μM. The stock was diluted to “11×” the maximum concentration used in DPBS (GIBCO) and serially diluted in KBSA/DPBS vehicle. […] The tubes were incubated for 30 minutes in a 37° C. bath, with gentle hand agitation every 10 minutes. The samples were then placed on ice for 10 minutes followed by addition of 10 μl of anti-rat-CD11b-FITC or FITC-labeled mouse IgG2a isotype control (both Antigenix America, Huntington Station, N.Y.) and incubated for 30 minutes on ice. FACS Lysing Solution (Becton Dickinson, San Jose, Calif.), 1 ml of 1×, was added with immediate vigorous vortexing, followed by additional vortex after the solution was added to the last sample. Samples were incubated for 10 minutes at room temperature and the leukocytes were pelleted at ˜300×g and washed with DPBS. Cells were resuspended in 650 μl of 1% paraformaldahyde. […] FL1 (green FITC fluorescence, directly relating to CD11b content) of this population was then measured as mean channel fluorescence by analysis with CellQuest software.
smiles,measurement,setting,value
"Cc1ccc(S(=O)(=O)O)cc1.O=C(Nc1ccc(Cl)c(S(=O)(=O)N2CCNCC2)c1O)Nc1cccc(F)c1Cl [present compound, N-[4-chloro-2-hydroxy-3-(piperazine-1-sulfonyl)phenyl]-N′-(2-chloro-3-fluorophenyl)urea p-toluenesulfonate]",EC50 of the CXCL2 concentration response curve (CD11b expression) in treated rats,"oral 10 mg/kg, Lewis rats, vehicle-treated rats 4.7 nM (1.9-7.4; 95% C.I.), treated 95% C.I. 10.0-14.7, p<0.001, n=6 per group",12.3 nM
same,inhibition of whole blood neutrophil CD11b expression,"oral dosing to Lewis rats at 10 mg/kg, blood drawn one hour later",active
